# In US20100120690A1, “Polypeptides Having Antimicrobial Activity and Polynucleotides Encoding Same” (Novozymes Adenium Biotech A/S, priority 2005, published 2010):
# System: Staphylococcus aureus, ATCC 29213
# Assay: MIC, NCCLS/CLSI guidelines (Example 5), strain A
# Type: cell-based
# Details: relative to wildtype Plectasin; average of two independent experiments
# Experimental: (§1) Plectasin wild-type (SEQ ID NO: 1) and several variants of Plectasin were expressed and purified. The Minimal Inhibitory Concentration (MIC) was determined to test for their antimicrobial activity following the NCCLS guidelines from CLSI (Clinical and Laboratory Standards Institute; formerly known as National Committee for Clinical and Laboratory Standards).
# (§2) The peptides were tested against the following strains: • A: Staphylococcus aureus, ATCC 29213; • B: Staphylococcus aureus, ATCC 25923; • C: Staphylococcus aureus, ATCC 29737; • D: Staphylococcus aureus, MRSA ST5 (2001), multi-resistant clinical human isolate from Statens Serum Institut, Denmark; • E: Staphylococcus aureus, MRSA ST80 (2003), multi-resistant clinical human isolate from Statens Serum Institut, Denmark.
# (§3) All MIC values represent an average of two independent experiments; and all results in Table 5 are expressed relative to wildtype Plectasin:
# (§4) 0: >100% of Plectasin wildtype MIC; 1: 80-100% of Plectasin wildtype MIC; 2: 50-80% of Plectasin wildtype MIC; 3: <50% of Plectasin wildtype MIC.
row,Substance,"Relative MIC, strain A"
1,M13T + Q14K + K26R: variant of Plectasin (SEQ ID NO: 1) (GFGCNGPWDEDDTKCHNHCKSIKGYRGGYCAKGGFVCKCY),1 (80-100% of Plectasin wildtype MIC)
2,M13Y + Q14K + K26R: variant of Plectasin (SEQ ID NO: 1) (GFGCNGPWDEDDYKCHNHCKSIKGYRGGYCAKGGFVCKCY),2 (50-80% of Plectasin wildtype MIC)
3,N5A + D9S + M13L + N17T: variant of Plectasin (SEQ ID NO: 1) (GFGCAGPWSEDDLQCHTHCKSIKGYKGGYCAKGGFVCKCY),0 (>100% of Plectasin wildtype MIC)
4,N5G + D9S + M13L + N17Q + A31T: variant of Plectasin (SEQ ID NO: 1) (GFGCGGPWSEDDLQCHQHCKSIKGYKGGYCTKGGFVCKCY),3 (<50% of Plectasin wildtype MIC)

# System: Staphylococcus aureus, ATCC 25923
# Assay: MIC, NCCLS/CLSI guidelines (Example 5), strain B
# Type: cell-based
# Details: relative to wildtype Plectasin; average of two independent experiments
# Experimental: as §1, §2, §3, §4
row,Substance,"Relative MIC, strain B"
1,M13T + Q14K + K26R: variant of Plectasin (SEQ ID NO: 1) (GFGCNGPWDEDDTKCHNHCKSIKGYRGGYCAKGGFVCKCY),3 (<50% of Plectasin wildtype MIC)
2,M13Y + Q14K + K26R: variant of Plectasin (SEQ ID NO: 1) (GFGCNGPWDEDDYKCHNHCKSIKGYRGGYCAKGGFVCKCY),3 (<50% of Plectasin wildtype MIC)
3,N5A + D9S + M13L + N17T: variant of Plectasin (SEQ ID NO: 1) (GFGCAGPWSEDDLQCHTHCKSIKGYKGGYCAKGGFVCKCY),3 (<50% of Plectasin wildtype MIC)
4,N5G + D9S + M13L + N17Q + A31T: variant of Plectasin (SEQ ID NO: 1) (GFGCGGPWSEDDLQCHQHCKSIKGYKGGYCTKGGFVCKCY),3 (<50% of Plectasin wildtype MIC)

# System: Staphylococcus aureus, ATCC 29737
# Assay: MIC, NCCLS/CLSI guidelines (Example 5), strain C
# Type: cell-based
# Details: relative to wildtype Plectasin; average of two independent experiments
# Experimental: as §1, §2, §3, §4
row,Substance,"Relative MIC, strain C"
1,M13T + Q14K + K26R: variant of Plectasin (SEQ ID NO: 1) (GFGCNGPWDEDDTKCHNHCKSIKGYRGGYCAKGGFVCKCY),3 (<50% of Plectasin wildtype MIC)
2,M13Y + Q14K + K26R: variant of Plectasin (SEQ ID NO: 1) (GFGCNGPWDEDDYKCHNHCKSIKGYRGGYCAKGGFVCKCY),3 (<50% of Plectasin wildtype MIC)
3,N5A + D9S + M13L + N17T: variant of Plectasin (SEQ ID NO: 1) (GFGCAGPWSEDDLQCHTHCKSIKGYKGGYCAKGGFVCKCY),3 (<50% of Plectasin wildtype MIC)
4,N5G + D9S + M13L + N17Q + A31T: variant of Plectasin (SEQ ID NO: 1) (GFGCGGPWSEDDLQCHQHCKSIKGYKGGYCTKGGFVCKCY),3 (<50% of Plectasin wildtype MIC)

# System: Staphylococcus aureus, MRSA ST5 (2001)
# Assay: MIC, NCCLS/CLSI guidelines (Example 5), strain D
# Type: cell-based
# Details: relative to wildtype Plectasin; average of two independent experiments
# Experimental: as §1, §2, §3, §4
row,Substance,"Relative MIC, strain D"
1,M13T + Q14K + K26R: variant of Plectasin (SEQ ID NO: 1) (GFGCNGPWDEDDTKCHNHCKSIKGYRGGYCAKGGFVCKCY),2 (50-80% of Plectasin wildtype MIC)
2,M13Y + Q14K + K26R: variant of Plectasin (SEQ ID NO: 1) (GFGCNGPWDEDDYKCHNHCKSIKGYRGGYCAKGGFVCKCY),3 (<50% of Plectasin wildtype MIC)
3,N5A + D9S + M13L + N17T: variant of Plectasin (SEQ ID NO: 1) (GFGCAGPWSEDDLQCHTHCKSIKGYKGGYCAKGGFVCKCY),2 (50-80% of Plectasin wildtype MIC)
4,N5G + D9S + M13L + N17Q + A31T: variant of Plectasin (SEQ ID NO: 1) (GFGCGGPWSEDDLQCHQHCKSIKGYKGGYCTKGGFVCKCY),3 (<50% of Plectasin wildtype MIC)

# System: Staphylococcus aureus, MRSA ST80 (2003)
# Assay: MIC, NCCLS/CLSI guidelines (Example 5), strain E
# Type: cell-based
# Details: relative to wildtype Plectasin; average of two independent experiments
# Experimental: as §1, §2, §3, §4
row,Substance,"Relative MIC, strain E"
1,M13T + Q14K + K26R: variant of Plectasin (SEQ ID NO: 1) (GFGCNGPWDEDDTKCHNHCKSIKGYRGGYCAKGGFVCKCY),0 (>100% of Plectasin wildtype MIC)
2,M13Y + Q14K + K26R: variant of Plectasin (SEQ ID NO: 1) (GFGCNGPWDEDDYKCHNHCKSIKGYRGGYCAKGGFVCKCY),3 (<50% of Plectasin wildtype MIC)
3,N5A + D9S + M13L + N17T: variant of Plectasin (SEQ ID NO: 1) (GFGCAGPWSEDDLQCHTHCKSIKGYKGGYCAKGGFVCKCY),3 (<50% of Plectasin wildtype MIC)
4,N5G + D9S + M13L + N17Q + A31T: variant of Plectasin (SEQ ID NO: 1) (GFGCGGPWSEDDLQCHQHCKSIKGYKGGYCTKGGFVCKCY),3 (<50% of Plectasin wildtype MIC)

# System: panel of 6 different strains of Staphylococcus aureus
# Assay: Average MIC, NCCLS/CLSI guidelines using caMHB (Example 6)
# Type: cell-based
# Details: average over 6 S. aureus strains, duplicate; MIC above 32 counted as 64; read after 18-24 hours at 37° C.
# Experimental: A large number of antimicrobial peptides of the invention were tested against a panel of 6 different strains of Staphylococcus aureus listed below:
# Staphylococcus aureus, ATCC29213, MSSA, NCCLS reference strain; Staphylococcus aureus, ATCC25923, MSSA, NCCLS reference strain; Staphylococcus aureus, ATCC29737, MSSA; Staphylococcus aureus, E33235, MSSA; Staphylococcus aureus, 698-01, MRSA ST5, Str, Kan, Oxa; Staphylococcus aureus, 566-03, MRSA ST80, Oxa, Tet, Fus, Kan.
# The staphylococci were exposed to the following peptide concentrations: 32; 16; 8; 4; 2; 1; 0.5; 0.25; 0.13; […]; and 0.03 microgram/mL. All peptides were purified, HPLC quantified and the concentrated peptides (>160 micrograms/mL) were diluted to 160 micrograms/mL in peptide dilution buffer (0.1% BSA, 0.01% Acetic Acid).
# The MIC determination was done essentially as described by NCCLS/CLSI guidelines using caMHB. The MICs were read after 18-24 hours of 37° C. incubations and recorded along with the CFU in the table below.
# A total number of 95 antimicrobial peptides of the invention were evaluated in duplicate against the 6 bacterial strains described above.
# In the majority of the double determinations (93%), the MIC varied <2 fold. An average MIC is tabulated below. If the MIC was above 32 micrograms/mL, a value of 64 was used to calculate the average.
row,Substance,Average MIC
1,M13T + Q14K + K26R: variant of Plectasin (SEQ ID NO: 1) (GFGCNGPWDEDDTKCHNHCKSIKGYRGGYCAKGGFVCKCY),7 micrograms/mL
2,M13Y + Q14K + K26R: variant of Plectasin (SEQ ID NO: 1) (GFGCNGPWDEDDYKCHNHCKSIKGYRGGYCAKGGFVCKCY),5 micrograms/mL
3,N5A + D9S + M13L + N17T: variant of Plectasin (SEQ ID NO: 1) (GFGCAGPWSEDDLQCHTHCKSIKGYKGGYCAKGGFVCKCY),6 micrograms/mL
4,N5G + D9S + M13L + N17Q + A31T: variant of Plectasin (SEQ ID NO: 1) (GFGCGGPWSEDDLQCHQHCKSIKGYKGGYCTKGGFVCKCY),3 micrograms/mL
